Assay [1] addresses recombinant human ACC2 (rhACC2) (Homo sapiens (Human), UniProt O00763). In words: recombinant hACC2 Transcreener ADP detection FP assay. Particulars: 50 uM ATP, 50 min at 25° C. Type of assay: biochemical. How it is done: (§1) For example direct inhibition of ACC activity, for the compound of Formula (I) was determined using preparations of recombinant human ACC1 (rhACC1) and recombinant human ACC2 (rhACC2).
[3] Preparation of rhACC2. Human ACC2 inhibition was measured using purified recombinant human ACC2 (hrACC2). Briefly, a full length Cytomax clone of ACC2 was purchased from Cambridge Bioscience Limited and was sequenced and subcloned into PCDNA5 FRT TO-TOPO (Invitrogen, Carlsbad, Calif.). The ACC2 was expressed in CHO cells by tetracycline induction and harvested in 5 liters of DMEM/F12 with glutamine, biotin, hygromycin and blasticidin with 1 μg/mL tetracycline (Invitrogen, Carlsbad, Calif.). The conditioned medium containing ACC2 was then applied to a Softlink Soft Release Avidin column (Promega, Madison, Wis.) and eluted with 5 mM biotin. […] The purified ACC2 was dialyzed in 50 mM Tris, 200 mM NaCl, 4 mM DTT, 2 mM EDTA, and 5% glycerol. […] For measurement of ACC2 activity and assessment of ACC2 inhibition, test compounds were dissolved in DMSO and added to the rhACC2 enzyme as a 5× stock with a final DMSO concentration of 1%.
[4] Measurement of human ACC2 inhibition. hACC2 was assayed in a Costar #3676 (Costar, Cambridge, Mass.) 384-well plate using the Transcreener ADP detection FP assay kit (Bellbrook Labs, Madison, Wis.) using the manufacturer's recommended conditions for a 50 uM ATP reaction. The final conditions for the assay were 50 mM HEPES, pH 7.2, 5 mM MgCl2, 5 mM tripotassium citrate, 2 mM DTT, 0.1 mg/mL BSA, 30 μM acetyl-CoA, 50 μM ATP, and 8 mM KHCO3 Typically, a 10 μl reaction was run for 50 min at 25° C., and 10 μl of Transcreener stop and detect buffer was added and the combination incubated at room temp for an additional 1 hour. The data was acquired on an Envision Fluorescence reader (PerkinElmer) using a 620 excitation Cy5 FP general dual mirror, 620 excitation Cy5 FP filter, 688 emission (S) and a 688 (P) emission filter.

Assay [2] deals with recombinant human ACC1 (rhACC1) (Homo sapiens (Human), UniProt Q13085). The assay is described as follows: recombinant hACC1 Transcreener ADP detection FP assay. Type of assay: biochemical. Particulars: 50 μM ATP, 120 min at 25° C. How it is done:
as §1
[1] Preparation of rhACC1. Two liters of SF9 cells, infected with recombinant baculovirus containing full length human ACC1 cDNA, were suspended in ice-cold lysis buffer (25 mM Tris, pH 7.5; 150 mM NaCl; 10% glycerol; 5 mM imidazole (EMD Bioscience; Gibbstown, N.J.); 2 mM TCEP (BioVectra; Charlottetown, Canada); Benzonase nuclease (10000 U/100 g cell paste; Novagen; Madison, Wis.); EDTA-free protease inhibitor cocktail (1 tab/50 mL; Roche Diagnostics; Mannheim, Germany). Cells were lysed by 3 cycles of freeze-thaw and centrifuged at 40,000×g for 40 minutes (4° C.). Supernatant was directly loaded onto a HisTrap FF crude column (GE Healthcare; Piscataway, N.J.) and eluted with an imidazole gradient up to 0.5 M over 20 column volumes (CV). ACC1-containing fractions were pooled and diluted 1:5 with 25 mM Tris, pH 7.5, 2 mM TCEP, 10% glycerol and direct loaded onto a CaptoQ (GE Healthcare) column and eluted with an NaCl gradient up to 1 M over 20 CV's. Phosphate groups were removed from purified ACC1 by incubation with lambda phosphatase (100 U/10 μM target protein; New England Biolabs; Beverly, Mass.) for 14 hours at 4° C.; okadaic acid was added (1 μM final concentration; Roche Diagnostics) to inhibit the phosphatase. Purified ACC1 was exchanged into 25 mM Tris, pH 7.5, 2 mM TCEP, 10% glycerol, 0.5 M NaCl by 6 hour dialysis at 4° C. Aliquots were prepared and frozen at −80° C.
[2] Measurement of rhACC1 inhibition. hACC1 was assayed in a Costar #3676 (Costar, Cambridge, Mass.) 384-well plate using the Transcreener ADP detection FP assay kit (Bellbrook Labs, Madison, Wis.) using the manufacturer's recommended conditions for a 50 μM ATP reaction. The final conditions for the assay were 50 mM HEPES, pH 7.2, 10 mM MgCl2, 7.5 mM tripotassium citrate, 2 mM DTT, 0.1 mg/mL BSA, 30 μM acetyl-CoA, 50 μM ATP, and 10 mM KHCO3 Typically, a 10 μl reaction was run for 120 min at 25° C., and 10 μl of Transcreener stop and detect buffer was added and the combination incubated at room temp for an additional 1 hour. The data was acquired on a Envision Fluorescence reader (PerkinElmer) using a 620 excitation Cy5 FP general dual mirror, 620 excitation Cy5 FP filter, 688 emission (S) and a 688 (P) emission filter.

As a reminder, the IC50 is the concentration that inhibits the measured activity by half.

Sequence of recombinant human ACC2 (rhACC2) (O00763 whole entry V2141I): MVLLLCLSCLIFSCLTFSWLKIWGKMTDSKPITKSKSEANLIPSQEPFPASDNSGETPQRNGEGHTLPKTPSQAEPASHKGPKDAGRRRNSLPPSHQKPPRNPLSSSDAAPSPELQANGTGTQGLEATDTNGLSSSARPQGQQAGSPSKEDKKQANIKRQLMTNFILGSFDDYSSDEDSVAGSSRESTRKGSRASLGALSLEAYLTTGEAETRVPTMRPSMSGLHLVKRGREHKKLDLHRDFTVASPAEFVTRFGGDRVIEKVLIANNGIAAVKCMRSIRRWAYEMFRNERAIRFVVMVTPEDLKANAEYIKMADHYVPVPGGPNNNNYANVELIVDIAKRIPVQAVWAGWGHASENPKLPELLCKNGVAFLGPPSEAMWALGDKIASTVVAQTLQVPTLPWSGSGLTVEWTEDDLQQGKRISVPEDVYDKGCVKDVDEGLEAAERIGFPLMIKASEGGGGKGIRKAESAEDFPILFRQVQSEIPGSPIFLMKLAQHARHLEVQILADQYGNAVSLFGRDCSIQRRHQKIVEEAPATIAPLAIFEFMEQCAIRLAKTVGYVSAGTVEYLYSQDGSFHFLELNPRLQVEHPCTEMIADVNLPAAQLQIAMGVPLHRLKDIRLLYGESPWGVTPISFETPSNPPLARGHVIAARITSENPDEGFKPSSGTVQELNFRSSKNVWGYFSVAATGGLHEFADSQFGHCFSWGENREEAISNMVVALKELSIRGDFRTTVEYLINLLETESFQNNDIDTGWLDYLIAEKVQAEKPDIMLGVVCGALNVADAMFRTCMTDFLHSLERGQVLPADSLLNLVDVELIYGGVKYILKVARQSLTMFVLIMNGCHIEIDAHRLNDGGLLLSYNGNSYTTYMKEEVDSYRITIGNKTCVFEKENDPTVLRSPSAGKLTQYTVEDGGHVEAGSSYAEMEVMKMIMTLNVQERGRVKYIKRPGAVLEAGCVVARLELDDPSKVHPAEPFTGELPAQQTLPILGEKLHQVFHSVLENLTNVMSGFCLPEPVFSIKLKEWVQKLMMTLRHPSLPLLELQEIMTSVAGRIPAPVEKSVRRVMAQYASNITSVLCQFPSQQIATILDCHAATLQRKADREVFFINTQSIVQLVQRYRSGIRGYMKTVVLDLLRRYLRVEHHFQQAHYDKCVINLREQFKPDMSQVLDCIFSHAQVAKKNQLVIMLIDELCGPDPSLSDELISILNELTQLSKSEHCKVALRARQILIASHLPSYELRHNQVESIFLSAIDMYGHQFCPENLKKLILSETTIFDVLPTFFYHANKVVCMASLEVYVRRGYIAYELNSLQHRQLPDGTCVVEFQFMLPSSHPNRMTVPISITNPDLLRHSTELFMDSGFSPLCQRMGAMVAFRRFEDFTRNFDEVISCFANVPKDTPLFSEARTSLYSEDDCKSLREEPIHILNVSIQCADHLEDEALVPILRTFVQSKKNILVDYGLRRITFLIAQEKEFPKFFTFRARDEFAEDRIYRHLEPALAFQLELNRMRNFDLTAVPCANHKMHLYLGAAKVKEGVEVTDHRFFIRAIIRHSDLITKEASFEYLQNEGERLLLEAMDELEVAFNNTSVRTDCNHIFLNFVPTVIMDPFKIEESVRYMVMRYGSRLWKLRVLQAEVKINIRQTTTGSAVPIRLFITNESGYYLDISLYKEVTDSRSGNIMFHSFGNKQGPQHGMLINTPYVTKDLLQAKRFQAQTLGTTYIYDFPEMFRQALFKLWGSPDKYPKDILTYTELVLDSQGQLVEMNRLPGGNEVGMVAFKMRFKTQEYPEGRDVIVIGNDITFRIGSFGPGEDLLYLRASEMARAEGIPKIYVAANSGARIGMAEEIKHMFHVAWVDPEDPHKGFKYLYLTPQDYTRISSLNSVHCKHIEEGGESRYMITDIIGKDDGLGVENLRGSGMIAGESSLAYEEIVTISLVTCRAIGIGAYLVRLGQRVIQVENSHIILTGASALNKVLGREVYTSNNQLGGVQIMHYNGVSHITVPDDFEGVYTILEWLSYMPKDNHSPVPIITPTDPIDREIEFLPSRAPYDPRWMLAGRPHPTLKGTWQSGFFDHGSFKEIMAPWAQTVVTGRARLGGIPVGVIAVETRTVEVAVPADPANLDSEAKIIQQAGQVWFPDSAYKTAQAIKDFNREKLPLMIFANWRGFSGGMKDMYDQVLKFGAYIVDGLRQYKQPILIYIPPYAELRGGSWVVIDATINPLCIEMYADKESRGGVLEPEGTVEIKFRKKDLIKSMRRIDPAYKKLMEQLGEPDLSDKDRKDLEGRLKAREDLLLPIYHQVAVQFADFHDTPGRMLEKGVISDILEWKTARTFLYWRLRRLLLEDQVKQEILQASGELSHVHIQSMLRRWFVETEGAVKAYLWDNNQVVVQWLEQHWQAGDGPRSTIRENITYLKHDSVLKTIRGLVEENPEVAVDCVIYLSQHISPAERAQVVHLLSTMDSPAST

`Cc1nc2cc(C(=O)N3CCC4(CC3)Cc3cnn(C(C)C)c3C(=O)N4)ccc2[nH]1` [Example 1, 1′-isopropyl-1-(2-methyl-1H-benzo[d]imidazole-5-carbonyl)-4′,6′-dihydrospiro[piperidine-4,5′-pyrazolo[3,4-c]pyridin]-7′(1′H)-one]: the half-maximal inhibitory concentration (IC50) in assay [1] was found to be 312 nM; in assay [2], 417 nM.
Consider `COc1cc(C(=O)N2CCC3(CC2)Cc2cn(C(C)(C)C)nc2C(=O)N3)cc2[nH]ncc12` [Example 66], for which the IC50 in assay [1] was determined as 2.4 nM; in assay [2], 17 nM.
Taken in the same sequence, the figures for `CC(C)n1ncc2c1C(=O)NC1(CCN(C(=O)c3cc(Cl)c4[nH]ncc4c3)CC1)C2` [Example 11] were 72 nM and 88 nM.
Taken in the same sequence, the figures for `CC(C)n1ncc2c1C(=O)NC1(CCN(C(=O)c3cnc4cn[nH]c4c3)CC1)C2` [Example 19] were 2010 nM and 1480 nM.
Turning to `COc1cccc2cc(C(=O)N3CCC4(CC3)Cc3cn(C(C)(C)C)nc3C(=O)N4)ccc12` [Example 50], the IC50 in assay [1] came out at 7.5 nM; in assay [2], 30 nM.
Regarding `CNc1nccc2cc(C(=O)N3CCC4(CC3)Cc3cn(C(C)(C)C)nc3C(=O)N4)ccc12` [Example 91], the figures for the IC50 in assay [1] and in assay [2] were 51 nM and 240 nM, respectively.
Taken in the same sequence, the figures for `CC(C)n1ncc2c1C(=O)NC1(CCN(C(=O)c3ccc4[nH]c(N)nc4c3)CC1)C2` [Example 35] were 91 nM and 487 nM.
For `CC(C)(C)n1ncc2c1C(=O)NC1(CCN(C(=O)c3ccc4n[nH]cc4c3)CC1)C2` [Example 6] the same measures were 305 nM and 269 nM.
Taken in the same sequence, the figures for `COc1cc(C(=O)N2CCC3(CC2)Cc2cn(C(C)(C)C)nc2C(=O)N3)nc2c(OC)cccc12` [Example 51] were 4.4 nM and 15 nM.
`CC(C)(C)n1cc2c(n1)C(=O)NC1(CCN(C(=O)c3ccc4c(C#N)n[nH]c4c3)CC1)C2` [Example 53]: the IC50 in assay [1] is 13 nM; in assay [2], 47 nM.
For `CC(C)(C)n1cc2c(n1)C(=O)NC1(CCN(C(=O)c3ccc4ncccc4c3)CC1)C2` [Example 63] the same measures were 28 nM and 160 nM.
Turning to `CN(C)c1nccc2ccc(C(=O)N3CCC4(CC3)Cc3cn(C(C)(C)C)nc3C(=O)N4)cc12` [Example 103, 2′-tert-butyl-1-(1-(dimethylamino)isoquinoline-7-carbonyl)-4′,6′-dihydrospiro[piperidine-4,5′-pyrazolo[3,4-c]pyridin]-7′(2′H)-one], the IC50 in assay [1] stood at 8.9 nM; in assay [2] it was 73 nM.
Take `CC(C)n1ncc2c1C(=O)NC1(CCN(C(=O)c3ccc4nn(C)cc4c3)CC1)C2` [Example 3, 1′-isopropyl-1-(2-methyl-2H-indazole-5-carbonyl)-4′,6′-dihydrospiro[piperidine-4,5′-pyrazolo[3,4-c]pyridin]-7′(1′H)-one]: the values for the 50% inhibitory concentration (IC50) in assay [1] and in assay [2] were 2280 nM and 3920 nM, respectively.
For `CC(C)n1ncc2c1C(=O)NC1(CCN(C(=O)c3cc4ncccc4[nH]3)CC1)C2` [Example 18] the same measures were 719 nM and 657 nM.
As to `COc1ccc2ccc(C(=O)N3CCC4(CC3)Cc3cn(C(C)(C)C)nc3C(=O)N4)cc2c1` [Example 49], the IC50 in assay [1] was 3.8 nM; in assay [2], 8.5 nM.
For `CC(C)n1ncc2c1C(=O)NC1(CCN(C(=O)c3cnc4cc[nH]c4c3)CC1)C2` [Example 10] the same measures were 498 nM and 403 nM.
Taken in the same sequence, the figures for `CC(C)(C)n1cc2c(n1)C(=O)NC1(CCN(C(=O)c3cnc4[nH]cc(Cl)c4c3)CC1)C2` [Example 96] were 7.1 nM and 62 nM.
For `COCCNc1ccc2ccc(C(=O)N3CCC4(CC3)Cc3cn(C(C)(C)C)nc3C(=O)N4)cc2n1` [Example 111] the same measures were 3.3 nM and 27 nM.
With `CCNc1nccc2ccc(C(=O)N3CCC4(CC3)Cc3cn(C(C)(C)C)nc3C(=O)N4)cc12` [Example 121], the IC50 is 2.7 nM in assay [1] and 17 nM in assay [2].
Taken in the same sequence, the figures for `CC(C)Nc1nccc2ccc(C(=O)N3CCC4(CC3)Cc3cn(C(C)(C)C)nc3C(=O)N4)cc12` [Example 116] were 4.7 nM and 20 nM.
For `CNc1n[nH]c2ccc(C(=O)N3CCC4(CC3)Cc3cn(C(C)(C)C)nc3C(=O)N4)cc12` [Example 93] the same measures were 8.6 nM and 65 nM.
Taken in the same sequence, the figures for `Cc1cc(C(=O)N2CCC3(CC2)Cc2cn(C(C)(C)C)nc2C(=O)N3)cc2cn[nH]c12` [Example 44] were 10 nM and 26 nM.
In the case of `CNc1n[nH]c2ccc(C(=O)N3CCC4(CC3)Cc3cnn(C(C)C)c3C(=O)N4)cc12` [Example 37], the results for the IC50 in assay [1] and in assay [2] were 127 nM and 302 nM, respectively.
As to `CC(C)(C)n1cc2c(n1)C(=O)NC1(CCN(C(=O)c3ccc4c(N)nccc4c3)CC1)C2` [Example 101, 1-(1-aminoisoquinoline-6-carbonyl)-2′-tert-butyl-4′,6′-dihydrospiro[piperidine-4,5′-pyrazolo[3,4-c]pyridin]-7′(2′H)-one], the IC50 in assay [1] was found to be 26 nM; in assay [2] it was 160 nM.
Taken in the same sequence, the figures for `CC(C)(C)n1cc2c(n1)C(=O)NC1(CCN(C(=O)c3ccc4cnc(N)cc4c3)CC1)C2` [Example 59] were 14 nM and 123 nM.
Taken in the same sequence, the figures for `COc1n[nH]c2ccc(C(=O)N3CCC4(CC3)Cc3cn(C(C)(C)C)nc3C(=O)N4)cc12` [Example 81] were 5.3 nM and 46 nM.
Consider `CNc1ccc2cc(C(=O)N3CCC4(CC3)Cc3cn(C(C)(C)C)nc3C(=O)N4)ccc2n1` [Example 69], for which the IC50 in assay [1] is 28 nM; in assay [2], 185 nM.
For the compound `CC(C)(C)n1cc2c(n1)C(=O)NC1(CCN(C(=O)c3ccc4c(C(F)(F)F)n[nH]c4c3)CC1)C2` [Example 83], the IC50 came out at 19 nM in assay [1] and 163 nM in assay [2].
Taken in the same sequence, the figures for `CC(C)(C)n1cc2c(n1)C(=O)NC1(CCN(C(=O)c3ccc4ccc(NCC(F)(F)F)nc4c3)CC1)C2` [Example 124] were 1.72 nM and 6.5 nM.
Taken in the same sequence, the figures for `Cn1[nH]c2cc(C(=O)N3CCC4(CC3)Cc3cn(C(C)(C)C)nc3C(=O)N4)ccc2c1=O` [Example 84] were 33 nM and 194 nM.
Taken in the same sequence, the figures for `CCNc1ccc2ccc(C(=O)N3CCC4(CC3)Cc3cn(C(C)(C)C)nc3C(=O)N4)cc2n1` [Example 112] were 1.8 nM and 8.9 nM.
As to `CC(C)(C)n1cc2c(n1)C(=O)NC1(CCN(C(=O)c3ccc4[nH]nc(C(N)=O)c4c3)CC1)C2` [Example 54], the IC50 in assay [1] amounted to 5.1 nM; in assay [2], 21 nM.
Turning to `CNc1nccc2ccc(C(=O)N3CCC4(CC3)Cc3cnn(C(C)C)c3C(=O)N4)cc12` [Example 36], the figures for the IC50 in assay [1] and in assay [2] were 28 nM and 67 nM, respectively.

The values are drawn from patent US8993586B2, “N1/N2-lactam acetyl-CoA carboxylase inhibitors” (Pfizer Inc., priority 2010, dated 2015).
